Experimental data from US7666876B2, “Buprenorphine formulations for intranasal delivery” (Vernalis (R&D) Limited, priority 2002, dated 2010).

Experiment: Effect of dextrose and mannitol concentration on buprenorphine solubility in pectin solution (hplc)
Conditions: aqueous solution containing 20 mg/ml pectin, across the measured pH range
Method: Solutions containing pectin (Slendid 100) (20 mg/ml) were prepared at pH 3, 4, 5 and 6 (pH adjustments were made with 0.1M HCl or 0.1M meglumine). […] An excess of buprenorphine hydrochloride was then added and the mixture stirred overnight at 18° C. Saturated buprenorphine hydrochloride solutions were produced by passing each mixture through a 0.2 μm polycarbonate membrane filter. The concentration of buprenorphine hydrochloride in the filtrate was determined by hplc.

CO[C@]12CCC3(C[C@@H]1[C@@](C)(O)C(C)(C)C)[C@H]1Cc4ccc(O)c5c4[C@@]3(CCN1CC1CC1)C2O5 (stereo partly shown) [Buprenorphine]
Effect of dextrose or mannitol concentration on buprenorphine solubility: not affected significantly
